# Measured values taken from article PMC9645344, “Serotonin-releasing agents with reduced off-target effects” (Molecular Psychiatry, 2022).
# Experiments:
# Assay type in all cases: cell-based
# human SERT [1] = biological target: T1, human SERT (Homo sapiens, UniProt P31645); experiment: SERT uptake inhibition assay in HEK293 cells ([3H]5-HT)
# T1 construct: expressed in transfected cells
# Protocol: Human embryonic kidney 293 (HEK293) cells stably expressing the human isoforms of either DAT or SERT were maintained in Dulbecco’s Modified Eagle Medium (DMEM), supplemented with 10% fetal calf serum at a subconfluent state in humidified atmosphere (5% CO2, 37 °C).
# Uptake inhibition assays were performed as described earlier. Briefly, HEK293 cells stably expressing human SERT or DAT were seeded onto poly- D-lysine (PDL) coated 96-well plates (40,000 cells well^−1) the day before an experiment. Prior to the uptake inhibition assay, DMEM was replaced with Krebs-HEPES buffer (KHB, 25 mM HEPES, 120 mM NaCl, 5 mM KCl, 1.2 mM CaCl2, 1.2 mM MgSO4, and 5 mM D-glucose, pH 7.3) and the cells were preincubated with test drugs for 5 min at room temperature. Uptake assays were initiated by adding 20 nM [^3H]MPP^+ to DAT cells or 100 nM [^3H]5-HT to SERT cells. After 180 s (DAT) or 60 s (SERT), the tritiated substrate was removed by aspiration. Cells were washed once with ice-cold KHB, then lysed in 1% sodium dodecyl sulfate (SDS) and subjected to liquid scintillation counting to quantify tritium accumulated in each sample. Non-specific uptake was determined in the presence of mazindol (1 µM) for DAT or paroxetine (1 µM) for SERT and subtracted throughout.
# human SERT [2] = biological target: T1, human SERT; experiment: [3H]5-HT release assay in HEK293 cells (superfusion); details: 10 µM, SERT-expressing HEK293 cells
# Protocol: HEK293 cells stably expressing SERT were seeded onto PDL-coated glass coverslips (5 mm diameter) that were placed into 96-well plates at a density of 40,000 cells per well the day before the experiment. Cells were preloaded with [^3H]5-HT (0.4 µM, 20 min at 37 °C). Subsequently, the cells were transferred into small chambers with a total volume of 200 µl and superfused with KHB at a flow rate of 0.7 ml per min for 40 min to establish a stable baseline before the collection of 2-min fractions was initiated. For each experiment, three basal fractions were collected before the cells were exposed to various concentrations (given in the figure legends) of the test drugs for five fractions. Subsequently, the cells were superfused with 1% SDS for three final fractions that served to determine the total amount of radioactivity present within the cells at the end of each experimental run. The amount of tritium within each fraction was determined by liquid scintillation counting, and release was expressed as percentage of radioactivity released in relation to the total radioactivity present at the beginning of that fraction. Observations from superfusion experiments were excluded in case of premature exposure to SDS.
# 5-HT2C receptor = biological target: T2, 5-HT2C receptor (Homo sapiens, UniProt P28335); experiment: 5-HT receptor-dependent induction of GCamP6s fluorescence in HEK293 cells; details: 1 µM; GCamP6s fluorescence normalized to 1 µM 5-HT
# T2 construct: expressed in transfected cells
# T2 sequence (P28335 33-458): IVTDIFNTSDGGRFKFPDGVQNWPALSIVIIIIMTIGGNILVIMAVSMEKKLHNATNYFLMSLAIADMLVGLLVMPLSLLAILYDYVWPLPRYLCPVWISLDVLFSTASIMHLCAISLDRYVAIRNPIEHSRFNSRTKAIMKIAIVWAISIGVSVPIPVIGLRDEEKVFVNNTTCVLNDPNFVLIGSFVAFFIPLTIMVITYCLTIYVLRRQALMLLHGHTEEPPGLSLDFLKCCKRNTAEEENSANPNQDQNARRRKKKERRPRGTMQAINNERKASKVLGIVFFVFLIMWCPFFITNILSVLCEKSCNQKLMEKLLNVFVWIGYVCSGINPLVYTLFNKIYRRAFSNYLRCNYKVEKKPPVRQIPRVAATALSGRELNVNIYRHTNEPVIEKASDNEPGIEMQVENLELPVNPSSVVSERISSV
# Protocol: (§1) All cloning steps were performed using NEB Builder (New England Biolabs, Frankfurt/Main, Germany). GCamP6s was cloned into pcDNA3.1. GCaMP is a genetically encoded calcium indicator which allows measurement of calcium flux. To allow for visual inspection of co-expressed 5-HT2 receptors, the enhanced cyan fluorescent protein (eCFP) was added to the C-Terminus of the 5-HT2 receptors. The resulting constructs were then cloned into pcDNA4-TO to allow tetracycline dependent expression.
# (§2) In a first step, HEK293 cells were transfected with pcDNA6-TR and cells stably expressing the Tet-repressor were selected by the addition of blasticidin (60 µg ml^−1). In a second step, one of the resulting clones was transfected with one of the 5-HT2 receptor constructs and stable clones were selected by the addition of zeocin (150 µg ml^−1). Suitable clones were selected by visual inspection of the eCFP signal at the plasma membrane. In a last step, the eCFP positive clones were transfected with GCamp6s, and stable clones were selected using G418 (250 µg ml^−1). The resulting clones were sorted via FACS to isolate GCaMP6s (green fluorescent protein) positive cells and the resulting polyclonal cell lines were used for further experiments. Cells were maintained in DMEM supplemented with 2% fetal bovine serum, blasticidin, zeocin, and G418 at concentrations described above. To induce receptor expression, tetracycline (1 µg ml^−1) was added to the medium 18–24 h prior to the experiment.
# (§3) Imaging experiments were performed at room temperature (22–27 °C). Medium was exchanged for KHB 10 min prior to the experiment and cells were continuously superfused with KHB, using a fast superfusion device (DAD12, ALA Scientific, Farmingdale, NY, USA). Test drugs (0.1, 1, 10 µM) or 5-HT (1 µM) were applied for 30 s, interleaved by KHB superfusion for 300 s. GCamp6s fluorescence was monitored using an inverted microscope (Nikon Eclipse Ti2) equipped with a Nikon ×40 WI (NA 1.25) objective (Nikon Europe, Amsterdam, Netherlands). Fluorescence was excited using a 470 nm LED (Coolled pe4000, Coolled, Andover, NY, USA). Excitation light was filtered through a 480/20 nm bandpass filter and reflected via 505 nm dichroic mirror. Emission light was filtered using a 535/25 nm optical bandpass filter (Nikon Europe, Amsterdam, Netherlands). Images were taken at a frequency of 1 image s^−1 with an exposure time of 20–30 ms using an sCMOS camera (Andor Zyla 5.5, Oxford Instruments, Abingdon, UK) and NIS-Elements 5.2 software (Laboratory Imaging, Praha, Czech Republic).
# (§4) Image Stacks were background corrected by subtracting the mean intensity of […]. For each image the mean fluorescence intensity of 1–5 ROIs consisting of several clustered cells was measured. The change in intensity of the GCamP6s fluorescence was calculated as the intensity at the end of test drug application minus the intensity before substance application, normalized to the increase of fluorescence evoked by the application of 1 µM 5-HT. Data represent 1–5 fields of view from three independent experiments
# 5-HT2A receptor = biological target: T3, 5-HT2A receptor (Homo sapiens, UniProt P28223); experiment: as above; details: GCamP6s fluorescence normalized to 1 µM 5-HT
# T3 construct: expressed in transfected cells
# T3 sequence (P28223 whole entry): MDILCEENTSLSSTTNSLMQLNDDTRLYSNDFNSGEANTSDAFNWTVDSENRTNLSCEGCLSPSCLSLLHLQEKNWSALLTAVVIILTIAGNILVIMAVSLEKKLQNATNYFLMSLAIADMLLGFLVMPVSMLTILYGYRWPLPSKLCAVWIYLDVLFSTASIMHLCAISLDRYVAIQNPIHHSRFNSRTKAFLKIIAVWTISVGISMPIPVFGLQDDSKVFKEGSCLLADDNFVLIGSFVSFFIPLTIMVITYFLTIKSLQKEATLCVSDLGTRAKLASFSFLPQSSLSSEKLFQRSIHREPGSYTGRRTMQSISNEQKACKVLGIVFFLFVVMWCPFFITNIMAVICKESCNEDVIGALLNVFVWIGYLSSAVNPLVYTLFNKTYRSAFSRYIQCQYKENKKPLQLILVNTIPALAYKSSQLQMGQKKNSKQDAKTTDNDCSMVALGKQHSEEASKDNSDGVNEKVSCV
# Protocol: as §1, §2, §3, §4
# 5-HT2B receptor = 5-HT2B receptor (Homo sapiens, UniProt P41595); experiment: as above; details: GCamP6s fluorescence normalized to 1 µM 5-HT
# Sequence of 5-HT2B receptor (P41595 whole entry): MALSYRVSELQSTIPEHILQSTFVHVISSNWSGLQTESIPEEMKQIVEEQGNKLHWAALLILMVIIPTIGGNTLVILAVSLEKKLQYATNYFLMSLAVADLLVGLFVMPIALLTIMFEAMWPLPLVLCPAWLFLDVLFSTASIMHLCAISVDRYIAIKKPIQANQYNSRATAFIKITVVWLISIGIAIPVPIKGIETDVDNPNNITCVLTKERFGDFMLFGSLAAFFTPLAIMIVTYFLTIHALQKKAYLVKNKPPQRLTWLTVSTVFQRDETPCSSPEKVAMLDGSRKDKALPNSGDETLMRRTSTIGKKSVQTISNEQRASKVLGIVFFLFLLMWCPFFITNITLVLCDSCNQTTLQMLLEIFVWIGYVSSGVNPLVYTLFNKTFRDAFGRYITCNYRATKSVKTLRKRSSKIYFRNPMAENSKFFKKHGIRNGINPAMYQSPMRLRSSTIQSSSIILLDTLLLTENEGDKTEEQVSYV
# Protocol: as §1, §2, §3, §4
# T1 sequence (P31645 whole entry): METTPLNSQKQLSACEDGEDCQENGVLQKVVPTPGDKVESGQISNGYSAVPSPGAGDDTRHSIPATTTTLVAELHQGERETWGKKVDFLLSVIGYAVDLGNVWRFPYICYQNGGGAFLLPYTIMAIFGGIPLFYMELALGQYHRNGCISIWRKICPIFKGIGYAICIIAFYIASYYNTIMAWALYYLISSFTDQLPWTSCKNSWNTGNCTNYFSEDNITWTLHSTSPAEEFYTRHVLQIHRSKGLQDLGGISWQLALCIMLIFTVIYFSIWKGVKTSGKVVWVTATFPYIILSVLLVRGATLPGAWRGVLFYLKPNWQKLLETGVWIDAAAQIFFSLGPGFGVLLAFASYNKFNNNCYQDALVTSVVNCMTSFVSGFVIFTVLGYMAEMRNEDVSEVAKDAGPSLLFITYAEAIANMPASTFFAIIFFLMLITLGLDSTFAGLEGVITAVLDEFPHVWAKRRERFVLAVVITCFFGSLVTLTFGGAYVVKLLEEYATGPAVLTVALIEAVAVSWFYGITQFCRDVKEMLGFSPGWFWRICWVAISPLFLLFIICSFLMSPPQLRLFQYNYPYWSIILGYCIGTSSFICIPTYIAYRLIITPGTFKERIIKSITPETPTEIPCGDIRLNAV
Compound,IC50 (human SERT [1]) [µM],effect on release of preloaded [3H]5-HT (human SERT [2]),activation of 5-HT2C receptor (5-HT2C receptor),activation of 5-HT2A receptor (5-HT2A receptor; 1 µM),activation of 5-HT2B receptor (5-HT2B receptor; 1 µM),activation of 5-HT2A receptor (5-HT2A receptor; 10 µM),activation of 5-HT2B receptor (5-HT2B receptor; 10 µM)
"CN[C@@H](C)C(=O)c1ccc(C(F)(F)F)cc1 [S-4-TFMMC, 4-trifluoromethyl-N-methylcathinone]",10.2,robustly increased,neither test drug activated,neither test drug activated,neither test drug activated,,
"Cc1ccc(C(=O)[C@H](C)N)cc1 [S-4-MC, 4-methylcathinone]",12.6,robustly increased,neither test drug activated,neither test drug activated,neither test drug activated,displayed activity,moderate effects
